Measured values as given in US11643395B2, “Derivatives of 4-aminoantipyrine as anti-Alzheimers butyrylcholinesterase inhibitors” (priority 2021, dated 2023).
“Also recorded” adds a separate entry of the source. Structures can show the parent of a compound that is named as a salt.

Legend:
[1] = biological target: T1, butyrylcholinesterase (BuChE) enzyme (Homo sapiens (Human), UniProt P06276); assay: In-vitro butyryl cholinesterase inhibitory activity (DTNB, 96-well); type: biochemical; details: for IC50: read-out: Butyrylcholinesterase Inhibition Activity IC50 ± SEM; for Butyrylcholinesterase inhibition, rating in words: compared with standard galantamine hydrobromide
T1 sequence (P06276 29-602): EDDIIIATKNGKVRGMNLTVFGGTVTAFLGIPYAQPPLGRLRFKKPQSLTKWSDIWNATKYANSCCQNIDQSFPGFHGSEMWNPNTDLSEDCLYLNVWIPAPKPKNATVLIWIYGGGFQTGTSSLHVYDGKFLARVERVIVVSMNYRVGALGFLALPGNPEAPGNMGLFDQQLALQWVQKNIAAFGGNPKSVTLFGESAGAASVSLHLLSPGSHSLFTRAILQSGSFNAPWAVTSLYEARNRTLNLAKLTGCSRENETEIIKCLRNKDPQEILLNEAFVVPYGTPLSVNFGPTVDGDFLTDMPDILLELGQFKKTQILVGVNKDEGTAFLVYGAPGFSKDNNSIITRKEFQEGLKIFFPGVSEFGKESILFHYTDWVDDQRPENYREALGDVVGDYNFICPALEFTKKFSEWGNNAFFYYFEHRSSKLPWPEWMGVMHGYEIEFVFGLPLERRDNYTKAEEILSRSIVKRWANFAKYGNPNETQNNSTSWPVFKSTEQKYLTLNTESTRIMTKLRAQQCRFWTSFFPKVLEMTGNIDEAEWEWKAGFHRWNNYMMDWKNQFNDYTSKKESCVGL
Experimental: After that 10 μL of pre-prepared butyrylthiocholine chloride (0.5 mM) substrate was added in the dark for 15 minutes, followed by the addition DTNB (0.5 mM), to produce thionitrobenzoate (TNB), whose absorbance range in 412 nm. 5-Thio-2 nitrobenzoate (TNB) (yellow color) anion was produced when thiocholine binds with DTNB which was measured in the form of absorbance in each well. Each compound was evaluated in triplicate at 0.5 mM.
The enzyme inhibitory activity was calculated using the following formula: Percent Inhibition=100−(O.D. of test/O.D. of control)×100
Where test is the enzyme activity with sample, and control is the enzyme activity without sample, and O.D. is optical density.
The IC50 of the compounds was calculated using EZ-Fit Enzyme Kinetic Program (Perrella Scientific Inc., Amhrest, U.S.A.).

[2] = biological target: T1, butyrylcholinesterase (BuChE) enzyme; assay: Kinetic studies of butyrylcholinesterase inhibition (L-B reciprocal plots); type: biochemical; details: four substrate concentrations (0.05, 0.1, 0.2, 0.4 mM); for Ki: read-out: Butyrylcholinesterase Inhibition Activity Ki ± SEM
Experimental: 0.5 mM concentrations of each inhibitor, as well as control, were examined for their butyrylcholinesterase inhibitory activity using four different substrate concentrations (0.05, 0.1, 0.2, and 0.4 mM).

[3] = butyrylthiocholine chloride substrate, pH 8.0, 25° C.

| Compound | IC50 [1, 3] | Butyrylcholinesterase inhibition, rating in words [1] | Butyrylcholinesterase Inhibition Activity IC50 ± SEM [1, 3] | Type of inhibition of butyrylcholinesterase [2] | Ki [2] |
| --- | --- | --- | --- | --- | --- |
| Cc1c(N)c(=O)n(-c2ccccc2)n1C [4-aminoantipyrine, 4-Aminoantipyrine] | 69.7 ± 0.4 µM | moderate inhibitor | – | – | – |
| Cc1c(N(Cc2cccc(Cl)c2)Cc2cccc(Cl)c2)c(=O)n(-c2ccccc2)n1C [Compound 1, 4-(Bis(3-chlorobenzyl)amino)-1,5-dimethyl-2-phenyl-1,2-dihydro-3H-pyrazol-3-one] | 0.1 µM | potent inhibitors | – | – | – |
| Cc1c(N(Cc2ccccc2Cl)Cc2ccccc2Cl)c(=O)n(-c2ccccc2)n1C [Compound 2, 4-(Bis(2-chlorobenzyl)amino)-1,5-dimethyl-2-phenyl-1,2-dihydro-3H-pyrazol-3-one] | 0.5 µM | potent inhibitors | – | – | – |
| Cc1c(N(Cc2cccc(I)c2)Cc2cccc(I)c2)c(=O)n(-c2ccccc2)n1C [Compound 3, 4-(Bis(3-iodobenzyl)amino)-1,5-dimethyl-2-phenyl-1,2-dihydro-3H-pyrazol-3-one] | 0.4 µM | potent inhibitors | – | – | – |
| Cc1c(N(Cc2ccccc2I)Cc2ccccc2I)c(=O)n(-c2ccccc2)n1C [Compound 4, 4-(Bis(2-iodobenzyl)amino)-1,5-dimethyl-2-phenyl-1,2-dihydro-3H-pyrazol-3-one] | – | completely inactive | Not Active | – | – |
| Cc1c(N(Cc2ccc(I)cc2)Cc2ccc(I)cc2)c(=O)n(-c2ccccc2)n1C [Compound 5, 4-(Bis(4-iodobenzyl)amino)-1,5-dimethyl-2-phenyl-1,2-dihydro-3H-pyrazol-3-one] | 2.43 µM | potent inhibitors | – | competitive inhibition; also recorded: Competitive Inhibitor | 5.67 µM |
| Cc1c(N(Cc2ccccc2Br)Cc2ccccc2Br)c(=O)n(-c2ccccc2)n1C [Compound 6, 4-(Bis(2-bromobenzyl)amino)-1,5-dimethyl-2-phenyl-1,2-dihydro-3H-pyrazol-3-one] | 0.7 µM | potent inhibitors | – | non-competitive type of inhibition; also recorded: Non-competitive Inhibitor | 2.4 µM |
| Cc1c(N(Cc2ccc(Br)cc2)Cc2ccc(Br)cc2)c(=O)n(-c2ccccc2)n1C [Compound 7, 4-(Bis(4-bromobenzyl)amino)-1,5-dimethyl-2-phenyl-1,2-dihydro-3H-pyrazol-3-one] | 58.7 ± 0.4 µM | moderate inhibitor | – | – | – |
| Cc1c(N(Cc2cccc(Br)c2)Cc2cccc(Br)c2)c(=O)n(-c2ccccc2)n1C [Compound 8, 4-(Bis(3-bromobenzyl)amino)-1,5-dimethyl-2-phenyl-1,2-dihydro-3H-pyrazol-3-one] | 0.0262 µM | potent inhibitors | – | – | – |
| COc1ccc2c3c1O[C@H]1C[C@@H](O)C=C[C@@]31CCN(C)C2 [galantamine hydrobromide, reference compound] | – | – | – | Mixed type Inhibitor | – |
